Tests used:
[1] = system: Clostridium subterminale; test: Antibacterial activity against Clostridium subterminale by CLSI M11-A6 agar dilution method; type: functional
[2] = system: Bifidobacterium adolescentis; test: Antibacterial activity against Bifidobacterium adolescentis by CLSI M11-A6 agar dilution method; type: functional
[3] = system: Prevotella denticola; test: Antibacterial activity against Prevotella P denticola by CLSI M11-A6 agar dilution method; type: functional
[4] = system: Prevotella corporis; test: Antibacterial activity against Prevotella corporis by CLSI M11-A6 agar dilution method; type: functional
[5] = system: Blautia luti; test: Antibacterial activity against Ruminococcus luti by CLSI M11-A6 agar dilution method; type: functional
[6] = system: Ruminococcus gnavus; test: Antibacterial activity against Ruminococcus gnavus by CLSI M11-A6 agar dilution method; type: functional; conditions: Mediterraneibacter gnavus
[7] = system: Clostridium leptum; test: Antibacterial activity against Clostridium leptum by CLSI M11-A6 agar dilution method; type: functional
[8] = system: Enterocloster clostridioformis; test: Antibacterial activity against Clostridium clostridioforme by CLSI M11-A6 agar dilution method; type: functional
[9] = system: Prevotella buccae; test: Antibacterial activity against Prevotella buccae by CLSI M11-A6 agar dilution method; type: functional; conditions: Segatella buccae
[10] = system: Clostridium spiroforme; test: Antibacterial activity against Clostridium spiroforme by CLSI M11-A6 agar dilution method; type: functional; conditions: Thomasclavelia spiroformis
[11] = system: Bacteroides thetaiotaomicron; test: Antibacterial activity against Bacteroides thetaiotaomicron by CLSI M11-A6 agar dilution method; type: functional
[12] = system: Anaerococcus prevotii; test: Antibacterial activity against Anaerococcus prevotii by CLSI M11-A6 agar dilution method; type: functional
[13] = system: Parabacteroides merdae; test: Antibacterial activity against Parabacteroides merdae by CLSI M11-A6 agar dilution method; type: functional
[14] = system: Finegoldia magna; test: Antibacterial activity against Finegoldia magna by CLSI M11-A6 agar dilution method; type: functional
[15] = system: Anaerococcus tetradius; test: Antibacterial activity against Anaerococcus tetradius by CLSI M11-A6 agar dilution method; type: functional
[16] = system: Catenibacterium mitsuokai; test: Antibacterial activity against Catenibacterium mitsuokai by CLSI M11-A6 agar dilution method; type: functional
[17] = system: Clostridium glycolicum; test: Antibacterial activity against Clostridium glycolicum by CLSI M11-A6 agar dilution method; type: functional; conditions: Terrisporobacter glycolicus
[18] = system: Clostridium bartlettii; test: Antibacterial activity against Clostridium bartlettii by CLSI M11-A6 agar dilution method; type: functional; conditions: Intestinibacter bartlettii
[19] = system: Bifidobacterium longum; test: Antibacterial activity against Bifidobacterium longum by CLSI M11-A6 agar dilution method; type: functional
[20] = system: Actinomyces naeslundii; test: Antibacterial activity against Actinomyces naeslundii by CLSI M11-A6 agar dilution method; type: functional
[21] = system: [Clostridium] innocuum; test: Antibacterial activity against Clostridium innocuum by CLSI M11-A6 agar dilution method; type: functional
[22] = system: Clostridium sp.; test: Antibacterial activity against Clostridium sp. by CLSI M11-A6 agar dilution method; type: functional
[23] = system: Bifidobacterium breve; test: Antibacterial activity against Bifidobacterium breve by CLSI M11-A6 agar dilution method; type: functional
[24] = system: Bifidobacterium dentium; test: Antibacterial activity against Bifidobacterium dentium by CLSI M11-A6 agar dilution method; type: functional
[25] = Antibacterial activity against Bifidobacterium infantis by CLSI M11-A6 agar dilution method; type: functional, Bifidobacterium longum subsp. infantis; conditions: Bifidobacterium longum
[26] = system: Clostridium sporosphaeroides; test: Antibacterial activity against Clostridium sporosphaeroides by CLSI M11-A6 agar dilution method; type: functional; conditions: Faecalispora sporosphaeroides
[27] = system: Ruminococcus lactaris; test: Antibacterial activity against Ruminococcus lactaris by CLSI M11-A6 agar dilution method; type: functional
[28] = system: Fusobacterium mortiferum; test: Antibacterial activity against Fusobacterium mortiferum by CLSI M11-A6 agar dilution method; type: functional
[29] = system: Clostridium beijerinckii; test: Antibacterial activity against Clostridium beijerinckii by CLSI M11-A6 agar dilution method; type: functional
[30] = system: Coriobacterium; test: Antibacterial activity against […] by CLSI M11-A6 agar dilution method; type: functional
[31] = system: Bifidobacterium bifidum; test: Antibacterial activity against Bifidobacterium bifidum by CLSI M11-A6 agar dilution method; type: functional
[32] = system: Ruminococcus obeum; test: Antibacterial activity against Ruminococcus obeum by CLSI M11-A6 agar dilution method; type: functional; conditions: Blautia obeum
[33] = system: Bifidobacterium pseudolongum; test: Antibacterial activity against Bifidobacterium pseudolongum by CLSI M11-A6 agar dilution method; type: functional
[34] = system: Ruminococcus torques; test: Antibacterial activity against Ruminococcus torques by CLSI M11-A6 agar dilution method; type: functional; conditions: Mediterraneibacter torques
[35] = system: Parabacteroides distasonis; test: Antibacterial activity against Parabacteroides distasonis by CLSI M11-A6 agar dilution method; type: functional
[36] = system: Coprobacillus cateniformis; test: Antibacterial activity against Coprobacillus cateniformis by CLSI M11-A6 agar dilution method; type: functional
[37] = system: Clostridium scindens; test: Antibacterial activity against Clostridium scindens by CLSI M11-A6 agar dilution method; type: functional
[38] = system: Ruminococcus flavefaciens; test: Antibacterial activity against Ruminococcus flavefaciens by CLSI M11-A6 agar dilution method; type: functional
[39] = system: Clostridium disporicum; test: Antibacterial activity against Clostridium disporicum by CLSI M11-A6 agar dilution method; type: functional
[40] = system: Paeniclostridium sordellii; test: Antibacterial activity against Clostridium sordellii by CLSI M11-A6 agar dilution method; type: functional; conditions: Paraclostridium sordellii
[41] = system: Hoylesella oralis; test: Antibacterial activity against Prevotella oralis by CLSI M11-A6 agar dilution method; type: functional
[42] = system: Bilophila wadsworthia; test: Antibacterial activity against Bilophila wadsworthia by CLSI M11-A6 agar dilution method; type: functional
[43] = system: Streptococcus anginosus; test: Antibacterial activity against Streptococcus anginosus by CLSI M11-A6 agar dilution method; type: functional

CN[C@H](CC(C)C)C(=O)N[C@H]1C(=O)N[C@@H](CC(N)=O)C(=O)N[C@H]2C(=O)N[C@H]3C(=O)N[C@H](C(=O)N[C@H](C(=O)O)c4cc(O)cc(O)c4-c4cc3ccc4O)[C@H](O)c3ccc(c(Cl)c3)Oc3cc2cc(c3O[C@@H]2O[C@H](CO)[C@@H](O)[C@H](O)[C@H]2O[C@H]2C[C@](C)(N)[C@H](O)[C@H](C)O2)Oc2ccc(cc2Cl)[C@H]1O [VANCOMYCIN]
4 µg/mL: MIC90 [2] | MIC90 [7] | MIC90 [10] | MIC90 [16] | MIC90 [17] | MIC90 [18] | MIC90 [19] | MIC90 [20] | MIC90 [22] | MIC90 [23] | MIC90 [24] | MIC90 [25] | MIC90 [26] | MIC90 [29] | MIC90 [30] | MIC90 [31] | MIC90 [33] | MIC90 [36] | MIC90 [37] | MIC90 [39] | MIC90 [40]
32 µg/mL: MIC50 [3] | MIC50 [4] | MIC50 [9] | MIC50 [41]
2 µg/mL: MIC50 [8] | MIC90 [8] | MIC50 [43] | MIC90 [43]
128 µg/mL: MIC50 [13] | MIC90 [13] | MIC50 [35] | MIC90 [35]
0.5 µg/mL: MIC [1] | MIC50 [1] | MIC50 [2] | MIC50 [5] | MIC50 [6] | MIC50 [12] | MIC50 [14] | MIC50 [15] | MIC50 [16] | MIC50 [19] | MIC50 [20] | MIC50 [23] | MIC50 [24] | MIC50 [25] | MIC50 [27] | MIC50 [30] | MIC50 [31] | MIC50 [32] | MIC90 [32] | MIC50 [33] | MIC50 [34] | MIC50 [36] | MIC50 [38]
1 µg/mL: MIC90 [1] | MIC90 [5] | MIC90 [6] | MIC50 [7] | MIC50 [10] | MIC90 [12] | MIC90 [14] | MIC90 [15] | MIC50 [17] | MIC50 [18] | MIC50 [22] | MIC50 [26] | MIC90 [27] | MIC50 [29] | MIC90 [34] | MIC50 [37] | MIC90 [38] | MIC50 [39] | MIC50 [40]
> 128 µg/mL: MIC90 [3] | MIC90 [4] | MIC90 [9] | MIC50 [11] | MIC90 [11] | MIC [28] | MIC50 [28] | MIC90 [28] | MIC90 [41] | MIC [42] | MIC50 [42] | MIC90 [42]
16 µg/mL: MIC [21] | MIC50 [21] | MIC90 [21]

From ChEMBL document CHEMBL1671662, “In vitro activities of telavancin and six comparator agents against anaerobic bacterial isolates” (2009)
